Reference: ChEMBL document CHEMBL5131457, “Design, synthesis and biological evaluation of novel 1H-pyrazole-4-carbonyl-4,5,6,7-tetrahydrobenzo [b]thiophene derivatives as gut-selective NaPi2b inhibitors” (Bioorg Med Chem Lett, 2022)

What was measured:
[1] = molecular target: T1, Sodium-dependent phosphate transport protein 2B (Homo sapiens, UniProt O95436); test: Inhibition of human NaPi2b
T1 sequence (O95436 whole entry): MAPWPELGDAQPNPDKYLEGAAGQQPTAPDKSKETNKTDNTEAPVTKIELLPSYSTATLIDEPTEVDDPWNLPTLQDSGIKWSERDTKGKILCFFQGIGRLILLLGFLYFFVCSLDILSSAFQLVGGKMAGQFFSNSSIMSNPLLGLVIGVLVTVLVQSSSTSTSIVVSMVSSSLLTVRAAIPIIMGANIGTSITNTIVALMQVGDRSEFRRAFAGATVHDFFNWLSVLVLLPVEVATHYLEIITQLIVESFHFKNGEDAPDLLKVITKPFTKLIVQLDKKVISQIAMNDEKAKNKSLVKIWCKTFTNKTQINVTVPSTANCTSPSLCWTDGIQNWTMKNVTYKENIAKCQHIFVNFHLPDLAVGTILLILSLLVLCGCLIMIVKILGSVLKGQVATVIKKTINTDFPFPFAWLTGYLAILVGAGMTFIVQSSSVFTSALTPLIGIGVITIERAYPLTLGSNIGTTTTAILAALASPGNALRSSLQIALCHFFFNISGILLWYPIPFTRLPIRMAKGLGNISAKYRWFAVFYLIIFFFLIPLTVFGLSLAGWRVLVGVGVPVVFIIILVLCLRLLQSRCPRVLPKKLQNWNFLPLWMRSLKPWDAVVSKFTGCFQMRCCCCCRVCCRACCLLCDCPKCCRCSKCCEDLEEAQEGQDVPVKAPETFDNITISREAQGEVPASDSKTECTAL

[2] = AUC (0 to t) in fasted Sprague-Dawley rat at 10 mg/kg, po; assay type: ADME, organism-based; set-up: dose 10 mg/kg, route po; settings: in vivo; for AUC(0-t): Sprague-Dawley
[3] = Drug concentration in Sprague-Dawley rat intestine at 10 mg/kg, po relative to excretion rate; assay type: ADME, organism-based; settings: in vivo
[4] = AUC (0 to t) in fasted Sprague-Dawley rat at 1 mg/kg, iv; assay type: ADME, organism-based; set-up: dose 1 mg/kg, route iv; settings: in vivo; for AUC(0-t): Sprague-Dawley
[5] = Oral bioavailability in fasted Sprague-Dawley rat at 10 mg/kg; assay type: ADME, organism-based; settings: in vivo; for bioavailability: Sprague-Dawley
[6] = molecular target: T2, Sodium-dependent phosphate transport protein 2B (Rattus norvegicus, UniProt Q9JJ09); test: Inhibition of rat NaPi2b
T2 sequence (Q9JJ09 whole entry): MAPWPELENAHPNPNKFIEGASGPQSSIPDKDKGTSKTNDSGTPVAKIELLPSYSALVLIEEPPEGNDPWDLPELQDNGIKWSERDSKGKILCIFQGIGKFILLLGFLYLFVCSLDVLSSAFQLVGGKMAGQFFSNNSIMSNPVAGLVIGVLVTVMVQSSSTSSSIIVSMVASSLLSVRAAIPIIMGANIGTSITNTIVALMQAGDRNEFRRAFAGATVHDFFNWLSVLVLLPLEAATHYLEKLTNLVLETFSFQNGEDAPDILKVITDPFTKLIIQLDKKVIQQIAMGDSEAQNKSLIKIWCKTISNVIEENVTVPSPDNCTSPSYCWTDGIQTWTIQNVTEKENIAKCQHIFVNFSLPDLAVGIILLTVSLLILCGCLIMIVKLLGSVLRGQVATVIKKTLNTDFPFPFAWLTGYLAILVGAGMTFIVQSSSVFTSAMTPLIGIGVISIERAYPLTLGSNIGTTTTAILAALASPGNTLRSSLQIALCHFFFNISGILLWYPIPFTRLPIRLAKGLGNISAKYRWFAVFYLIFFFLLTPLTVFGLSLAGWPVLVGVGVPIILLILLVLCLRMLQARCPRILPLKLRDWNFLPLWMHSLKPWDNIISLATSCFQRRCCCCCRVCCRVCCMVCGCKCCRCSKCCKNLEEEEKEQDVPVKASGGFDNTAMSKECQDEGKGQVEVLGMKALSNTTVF

[7] = Cmax in fasted Sprague-Dawley rat at 10 mg/kg, po; assay type: ADME, organism-based; set-up: dose 10 mg/kg, route po; settings: in vivo
[8] = Drug excretion in fasted Sprague-Dawley rat feces at 10 mg/kg, po measured after 24 hrs; assay type: ADME, organism-based; settings: faeces, read-out: Drug excretion
[9] = Drug concentration in Sprague-Dawley rat intestine at 10 mg/kg, po relative to intestine volume; assay type: ADME, organism-based; settings: in vivo
[10] = Solubility of the compound in FaSSIF at pH 6.6; assay type: physicochemical
[11] = Solubility of the compound in FeSSIF at pH 5.1; assay type: physicochemical

`CCC(CC)N(CCN(C)C(=O)CCC(=O)O)Cc1cccc(C(=O)Nc2sc3c(c2C(=O)c2cnn(-c4ccc(Cl)cc4)c2)CCN(S(C)(=O)=O)C3)c1` showed an IC50 [1] of 2490 nM.

Work on `CCC(CC)N(CCN(C)C(=O)CCC(=O)O)Cc1cccc(C(=O)Nc2sc3c(c2C(=O)c2cnn(Cc4ccccc4)c2)CCC(C)(C)C3)c1` yielded an IC50 [1] of 179 nM.

Work on `CCC(CC)N(CCN(C)C(=O)CCC(=O)NC(C)(C)C(=O)NCCN(C)C)Cc1cccc(C(=O)Nc2sc3c(c2C(=O)c2cnn(-c4ccc(Cl)c(C(F)(F)F)c4)c2)CCC(C)(C)C3)c1` yielded an AUCt [2] of 15.3 ng·h/mL, a Ct [3] of 45 µg/mL and an AUCt [4] of 2580 ng·h/mL. It also gave an F ([5]; po, 10 mg/kg) of 0.6%, an IC50 [6] of 7.6 nM and a Cmax [7] of 15.3 ng/mL. For the same molecule, the dose excreted at 24 h [8] was 76.8%, the Ct [9] was 58 µg/mL and the IC50 [1] was 48 nM.

For `CCC(CC)N(CCN(C)C(=O)CCC(=O)O)Cc1cccc(C(=O)Nc2sc3c(c2C(=O)c2cnn(Cc4nnc[nH]4)c2)CCC(C)(C)C3)c1`, the IC50 [1] was > 1000 nM.

`CCC(CC)N(CCN(C)C(=O)CCC(=O)O)Cc1cccc(C(=O)Nc2sc3c(c2C(=O)c2cnn(-c4ccc(Cl)cc4)c2)CCOC3)c1` gave an IC50 [1] of 437 nM.

With `CCC(CC)N(CCN(C)C(=O)CCC(=O)O)Cc1cccc(C(=O)Nc2sc3c(c2C(=O)c2cnn(-c4ccc(Cl)cc4)c2)CCSC3)c1` the IC50 [1] was 713 nM.

`CCC(CC)N(CCN(C)C(=O)CCC(=O)NCCOCCOCCOCCO)Cc1cccc(C(=O)Nc2sc3c(c2C(=O)c2cnn(-c4ccc(Cl)c(C(F)(F)F)c4)c2)CCC(C)(C)C3)c1` showed an AUC(0-t) [2] of 32.3 ng·h/mL, a Ct [3] of 36 µg/mL and an AUC(0-t) [4] of 1570 ng·h/mL. The bioavailability [5] was 0.2%, the IC50 [6] was 2.1 nM and the Cmax [7] was 28.1 ng/mL. The dose excreted at 24 h [8] was 61.7%, the Ct [9] was 58 µg/mL and the IC50 [1] was 15 nM.

With `CCC(CC)N(CCN(C)C(=O)CCC(=O)O)Cc1cccc(C(=O)Nc2sc3c(c2C(=O)c2cnn(Cc4ccc(C(=O)O)cc4)c2)CCC(C)(C)C3)c1` the IC50 [1] was > 1000 nM.

Molecule `CCC(CC)N(CCN(C)C(=O)CCC(=O)O)S(=O)(=O)c1cccc(C(=O)Nc2sc3c(c2C(=O)c2cnn(-c4ccc(Cl)c(C(F)(F)F)c4)c2)CCC(C)(C)C3)c1` has an IC50 [1] of 39 nM.

In the case of `CCN([C@H]1CC[C@H](C(=O)O)CC1)S(=O)(=O)c1cccc(C(=O)Nc2sc3c(c2C(=O)c2cnn(-c4ccc(Cl)c(C(F)(F)F)c4)c2)CCC(C)(C)C3)c1`, the IC50 [1] is reported as 42 nM.

In the case of `CCC(CC)N(CCN(C)C(=O)CCC(=O)O)Cc1cccc(C(=O)Nc2sc3c(c2C(=O)c2cnn(Cc4cccc(C(=O)O)c4)c2)CCC(C)(C)C3)c1`, the IC50 [1] is reported as > 1000 nM.

Work on `CCC(CC)N(CCN(C)C(=O)CCC(=O)N(C)C[C@H](O)[C@@H](O)[C@@H](O)[C@H](O)CO)Cc1cccc(C(=O)Nc2sc3c(c2C(=O)c2cnn(-c4ccc(Cl)c(C(F)(F)F)c4)c2)CCC(C)(C)C3)c1` yielded an IC50 [1] of 87 nM.

`CCC(CC)N(CCN(C)C(=O)CCC(=O)O)Cc1cccc(C(=O)Nc2sc3c(c2C(=O)c2cnn(-c4cccc(C(F)(F)F)c4)c2)CCC(C)(C)C3)c1` gave an IC50 [1] of 46 nM.

Molecule `CCC(CC)N(CCN(C)C(=O)CCC(=O)O)Cc1cccc(C(=O)Nc2sc3c(c2C(=O)c2cnn(-c4ccc(Cl)cc4)c2)CCN(C2CC2)C3)c1` has an IC50 [1] of 80 nM.

In the case of `CCC(CC)N(CCN(C)C(=O)CCC(=O)NCCOCCOCCOCCO)Cc1cccc(C(=O)Nc2sc3c(c2C(=O)c2cnn(-c4ccc(Cl)c(C(F)(F)F)c4)c2)CCC(C)(C)C3)c1.Cl`, the solubility [10] is reported as 107 µg/mL and the solubility [11] is reported as > 384 µg/mL.

With `CCC(CC)N(CCN(C)C(=O)CCC(=O)O)Cc1cccc(C(=O)Nc2sc3c(c2C(=O)c2cnn(-c4ccc(Cl)c(C(F)(F)F)c4)c2)CCC(C)(C)C3)c1` the AUC(0-t) [2] was 2190 ng·h/mL, the AUC(0-t) [4] was 3070 ng·h/mL and the bioavailability [5] was 7.1%. The Cmax [7] was 625 ng/mL and the IC50 [1] was 38 nM.

With `CCC(CC)N(CCN(C)C(=O)CCC(=O)O)Cc1cccc(C(=O)Nc2sc3c(c2C(=O)c2cnn(-c4cccc(C(=O)O)c4)c2)CCC(C)(C)C3)c1` the IC50 [1] was > 1000 nM.

In the case of `CC1(C)CCc2c(sc(NC(=O)c3cccc(OCCOCCOCCOCCOCCOCCO)c3)c2C(=O)c2cnn(-c3ccc(Cl)c(C(F)(F)F)c3)c2)C1`, the IC50 [1] is reported as 170 nM.

Work on `CCC(CC)N(CCN(C)C(=O)CCC(=O)O)Cc1cccc(C(=O)Nc2sc3c(c2C(=O)c2cnn(-c4ccc(Cl)cc4)c2)CCCC3)c1` yielded an IC50 [1] of 118 nM.

For `CCC(CC)N(CCN(C)C(=O)CCC(=O)O)Cc1cccc(C(=O)Nc2sc3c(c2C(=O)c2cnn(-c4ccc(Cl)cc4)c2)CCN(C(C)=O)C3)c1`, the IC50 [1] was > 1000 nM.

With `CCC(CC)N(CCN(C)C(=O)CCC(=O)O)Cc1cccc(C(=O)Nc2sc3c(c2C(=O)c2cnn(-c4ccc(C(=O)O)cc4)c2)CCC(C)(C)C3)c1` the IC50 [1] was > 1000 nM.

`CCC(CC)N(CCN(C)C(=O)CCC(=O)O)Cc1cccc(C(=O)Nc2sc3c(c2C(=O)c2cnn(-c4ccc(Cl)cc4)c2)CCC(C)(C)C3)c1` showed an IC50 [1] of 36 nM.

In the case of `CCC(CC)N(CCN(C)C(=O)CCC(=O)NC(C)(C)C(=O)NCCN(C)C)Cc1cccc(C(=O)Nc2sc3c(c2C(=O)c2cnn(-c4ccc(Cl)c(C(F)(F)F)c4)c2)CCC(C)(C)C3)c1.Cl`, the solubility [10] is reported as 242 µg/mL and the solubility [11] is reported as > 434 µg/mL.
